Experiments:
[1] = Clearance in CD-1 mouse at 1 mg/kg, iv by LC-MS/MS analysis; format: ADME, organism-based; conditions: in vivo
[2] = Volume of distribution in CD-1 mouse at 1 mg/kg, iv by LC-MS/MS analysis; format: ADME, organism-based; conditions: in vivo
[3] = Terminal half life in CD-1 mouse at 1 mg/kg, iv by LC-MS/MS analysis; format: ADME, organism-based; conditions: in vivo, read-out: beta t1/2 (converted)
[4] = Stability in human hepatocytes assessed as intrinsic clearance measured upto 120 minutes by LC/MS/MS analysis; format: ADME, cell-based, Hepatocyte; conditions: time >=60 min, read-out: CLH
[5] = Stability in mouse hepatocytes assessed as intrinsic clearance measured upto 60 minutes by LC/MS/MS analysis; format: ADME, cell-based, Hepatocyte; conditions: read-out: CLH
[6] = Apparent permeability across apical to basal membrane in human Caco-2 cells measured after 2 hrs by LC-MS/MS analysis; format: ADME, cell-based

CLint scaled [4]	CLint scaled [5]	SMILES	clearance [1]	Vd [2]	half-life [3]	Papp A→B at 2 h [6]
–	–	CC(=O)N(C)C1CCN(c2cc(F)cc(NC(=O)c3cc4c(F)ccc(C)c4[nH]3)c2)C1 (centres undefined)	24.2 mL/min/kg	1.04 L/kg	42 min	–
21.1 mL/min/kg	235 mL/min/kg	CC.Cc1ccc(F)c2cc(C(=O)N[C@@H]3CCC[C@H](N4CC[C@@H](N(C)S(C)(=O)=O)C4)C3)[nH]c12	–	–	–	–
–	–	Cc1ccc(F)c2cc(C(=O)N[C@@H]3CCC[C@H](N4CC[C@H](N(C)S(C)(=O)=O)C4)C3)[nH]c12	24.2 mL/min/kg	1.04 L/kg	42 min	3.2 ×10⁻⁶ cm/s
